pIC50: −log10 of the molar value. Where a name gives a salt, the structure may show the parent alone.

Sequence of Active Human ERK2 (hERK2) (P28482 whole entry): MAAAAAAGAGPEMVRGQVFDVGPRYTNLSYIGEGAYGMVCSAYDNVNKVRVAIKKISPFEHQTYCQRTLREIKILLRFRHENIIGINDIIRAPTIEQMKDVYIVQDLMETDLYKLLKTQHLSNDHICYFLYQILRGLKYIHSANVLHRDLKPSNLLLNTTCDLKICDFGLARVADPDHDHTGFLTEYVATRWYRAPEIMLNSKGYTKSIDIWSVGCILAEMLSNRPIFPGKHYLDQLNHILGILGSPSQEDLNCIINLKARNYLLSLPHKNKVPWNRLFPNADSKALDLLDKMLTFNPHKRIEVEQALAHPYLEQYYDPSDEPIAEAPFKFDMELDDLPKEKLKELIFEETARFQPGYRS

In this assay the target is Active Human ERK2 (hERK2) (Homo sapiens (Human), UniProt P28482). In words: Active Human ERK2 (hERK2) Activity Assay (IMAP-FP). The following applies: phosphorylated active hERK2 0.5 nM, 30 μM ATP, 10 point titration, read-out: ERK 2 Human average IC50. Format: biochemical. The procedure: Assays Active Human ERK2 (hERK2) Activity Assay:
Activated ERK2 activity was determined in an IMAP-FP assay (Molecular Devices). Using this assay format, the potency (IC50) of each compound was determined from a 10 point (1:3 serial dilution, 3 μM starting compound concentration) titration curve using the following outlined procedure. […] Following a 15 minute compound & enzyme incubation, each reaction was initiated by the addition of 10 μL kinase buffer containing 2.45 μM ERK2 IMAP substrate peptides (2.25 μM-unlabeled peptide and 200 nM-labeled peptide, and 75 μM ATP. The final reaction in each well of 25 μL consists of 0.5 nM hERK2, 900 nM unlabeled peptide, 80 nM labeled-peptide, and 30 μM ATP. Phosphorylation reactions were allowed to proceed for 60 minutes and were immediately quenched by the addition of 60 μL IMAP detection beads (1:1000 dilutions) in IMAP binding buffer (Molecular Devices) with 24 mM NaCl. Plates were read on EnVision reader after 60 minutes binding equilibration using Fluorescence Polarization protocol (Perkin Elmer).
On to `Cn1cc(-c2n[nH]c3cc4[nH]c(=O)ccc4cc23)cn1` [Example 4, 3-(1-methyl-1H-pyrazol-4-yl)-1,8-dihydro-7H-pyrazolo[4,3-g]quinolin-7-one], for which the pIC50 is 9.52. In the case of `O=c1ccc2cc3c(N4CCOCC4)n[nH]c3cc2[nH]1` [Example 24, 3-morpholino-1H-pyrazolo[4,3-g]quinolin-7(8H)-one] it was 7.92; in that of `COc1ncc(-c2n[nH]c3cc4c(cc23)CN([C@H](C)c2ccccc2)C(=O)N4)cn1` [Example 28, (R)-3-(2-methoxypyrimidin-5-yl)-6-(1-phenylethyl)-5,6-dihydro-1H-pyrazolo[4,3-g]quinazolin-7(8H)-one formate], 9.22; in that of `C[C@H](c1ccccc1)N1Cc2cc3c(OC4CCOC4)n[nH]c3cc2NC1=O` (stereo partly drawn) [Example 38, 6-((R)-1-phenylethyl)-3-((tetrahydrofuran-3-yl)oxy)-5,6-dihydro-1H-pyrazolo[4,3-g]quinazolin-7(8H)-one], 7.68.

In the case of `COCCOc1n[nH]c2cc3c(cc12)CN([C@H](C)c1ccccc1)C(=O)N3` [Example 36, (R)-3-(2-methoxyethoxy)-6-(1-phenylethyl)-5,6-dihydro-1H-pyrazolo[4,3-g]quinazolin-7(8H)-one], the negative logarithm of the IC50 (pIC50) is 8.19. For `COc1n[nH]c2cc3c(cc12)CN([C@H](C)c1ccccc1)C(=O)N3` [Example 35, (R)-3-methoxy-6-(1-phenylethyl)-5,6-dihydro-1H-pyrazolo[4,3-g]quinazolin-7(8H)-one] the value was 6.94; for `Cc1cc(-c2n[nH]c3cc4c(cc23)CN([C@H](C)c2ccccc2)C(=O)N4)ccn1` [Example 20, (R)-3-(2-methylpyridin-4-yl)-6-(1-phenylethyl)-5,6-dihydro-1H-pyrazolo[4,3-g]quinazolin-7(8H)-one 2,2,2-trifluoroacetate], 9.52; for `Cc1cc(-c2n[nH]c3cc4c(cc23)CN([C@@H]2CCCCc3ccccc32)C(=O)N4)ccn1` [Example 22, (R)-3-(2-methylpyridin-4-yl)-6-(6,7,8,9-tetrahydro-5H-benzo[7]annulen-5-yl)-5,6-dihydro-1H-pyrazolo[4,3-g]quinazolin-7(8H)-one], 7.62. For `CC(=O)Nc1n[nH]c2cc3c(cc12)CN([C@H](C)c1ccccc1)C(=O)N3` [Example 34, (R)-N-(7-oxo-6-(1-phenylethyl)-5,6,7,8-tetrahydro-1H-pyrazolo[4,3-g]quinazolin-3-yl)acetamide] the value was 8.64. Take `Cc1cc(-c2n[nH]c3cc4c(cc23)CN([C@H](C)c2ccc(F)cc2)C(=O)N4)ccn1` [Example 10, (R)-6-(1-(4-fluorophenyl)ethyl)-3-(2-methylpyridin-4-yl)-5,6-dihydro-1H-pyrazolo[4,3-g]quinazolin-7(8H)-one]: the pIC50 was 9.52. As for `Cn1cc(-c2n[nH]c3cc4[nH]c(=O)c(Br)cc4cc23)cn1` [Example 6, 6-bromo-3-(1-methyl-1H-pyrazol-4-yl)-1,8-dihydro-7H-pyrazolo[4,3-g]quinolin-7-one trifluoroacetate], the negative logarithm of the IC50 (pIC50) was 9.52. For `C[C@H](c1ccccc1)N1Cc2cc3c(N4CCc5ncsc5C4)n[nH]c3cc2NC1=O` [Example 47, (R)-3-(6,7-dihydrothiazolo[5,4-c]pyridin-5(4H)-yl)-6-(1-phenylethyl)-5,6-dihydro-1H-pyrazolo[4,3-g]quinazolin-7(8H)-one] the value was 7.62; for `Cc1cc(-c2n[nH]c3cc4c(cc23)CCN([C@H](C)c2ccc(F)cc2)C(=O)N4)ccn1` [Example 12, (R)-7-(1-(4-fluorophenyl)ethyl)-3-(2-methylpyridin-4-yl)-5,6,7,9-tetrahydro-[1,3]diazepino[5,4-f]indazol-8(1H)-one], 7.14; for `O=c1ccc2cc3cn[nH]c3cc2[nH]1` [Example 5, 1,8-dihydro-7H-pyrazolo[4,3-g]quinolin-7-one], 6.64. On to `Cn1cc(-c2n[nH]c3cc4[nH]c(=O)c(Cc5ccccc5)cc4cc23)cn1` [Example 7, 6-benzyl-3-(1-methyl-1H-pyrazol-4-yl)-1,8-dihydro-7H-pyrazolo[4,3-g]quinolin-7-one], for which the negative logarithm of the IC50 (pIC50) is 9.52. `C[C@H](c1ccccc1)N1Cc2cc3c(C4CC4)n[nH]c3cc2NC1=O` [Example 40, (R)-3-cyclopropyl-6-(1-phenylethyl)-5,6-dihydro-1H-pyrazolo[4,3-g]quinazolin-7(8H)-one]: the pIC50 is 7.62. Consider `Cc1cc(-c2n[nH]c3cc4[nH]c(=O)n([C@H](C)c5ccccc5)c(=O)c4cc23)ccn1` [Example 23, (R)-3-(2-methylpyridin-4-yl)-6-(1-phenylethyl)-1H-pyrazolo[4,3-g]quinazoline-5,7(6H,8H)-dione], for which the pIC50 is 8.43.

In the case of `Cc1cc(-c2n[nH]c3cc4c(cc23)CN(Cc2ccccc2)C(=O)N4)ccn1` [Example 14, 6-benzyl-3-(2-methylpyridin-4-yl)-5,6-dihydro-1H-pyrazolo[4,3-g]quinazolin-7(8H)-one], the pIC50 is 9.30. Regarding `Cc1cc(-c2n[nH]c3cc4c(cc23)CCCC(=O)N4)ccn1` [Example 9, 3-(2-methylpyridin-4-yl)-5,6,7,9-tetrahydroazepino[3,2-f]indazol-8(1H)-one], the negative-log IC50 (pIC50) was 6.60. Regarding `Cc1cc(-c2n[nH]c3cc4c(cc23)CNC(=O)N4)ccn1` [Example 13, 3-(2-methylpyridin-4-yl)-5,6-dihydro-1H-pyrazolo[4,3-g]quinazolin-7(8H)-one], the pIC50 was 9.22.

With `C[C@H](c1ccccc1)n1c(=O)[nH]c2cc3[nH]nc(-c4ccc5nnn(C)c5c4)c3cc2c1=O` [Example 15, (R)-3-(1-methyl-1H-benzo[d][1,2,3]triazol-6-yl)-6-(1-phenylethyl)-1H-pyrazolo[4,3-g]quinazoline-5,7(6H,8H)-dione], the pIC50 is 8.77.

As to `C[C@H](c1ccccc1)N1Cc2cc3c(OC4CCOCC4)n[nH]c3cc2NC1=O` [Example 39, (R)-6-(1-phenylethyl)-3-((tetrahydro-2H-pyran-4-yl)oxy)-5,6-dihydro-1H-pyrazolo[4,3-g]quinazolin-7(8H)-one], the pIC50 is 8.00. For `C[C@H](c1ccccc1)N1Cc2cc3c(N4CCOCC4)n[nH]c3cc2NC1=O` [Example 42, (R)-3-morpholino-6-(1-phenylethyl)-5,6-dihydro-1H-pyrazolo[4,3-g]quinazolin-7(8H)-one] the value was 8.05; for `COc1ccccc1CCN1Cc2cc3c(-c4ccnc(C)c4)n[nH]c3cc2NC1=O` [Example 19, 6-(2-methoxyphenethyl)-3-(2-methylpyridin-4-yl)-5,6-dihydro-1H-pyrazolo[4,3-g]quinazolin-7(8H)-one], 8.64.

Take `O=c1ccc2cc3c(N4CCCCC4)n[nH]c3cc2[nH]1` [Example 25, 3-(piperidin-1-yl)-1H-pyrazolo[4,3-g]quinolin-7(8H)-one]: the negative logarithm of the IC50 (pIC50) was 7.38. `Cc1cc(-c2n[nH]c3cc4c(cc23)CCN(Cc2ccc(F)cc2)C(=O)N4O)ccn1` [Example 11, 7-(4-fluorobenzyl)-9-hydroxy-3-(2-methylpyridin-4-yl)-5,6,7,9-tetrahydro-[1,3]diazepino[5,4-f]indazol-8(1H)-one]: the negative-log IC50 (pIC50) was 6.34. For `C[C@H](c1ccccc1)N1Cc2cc3c(-c4ccc(C#N)nc4)n[nH]c3cc2NC1=O` [Example 27, (R)-5-(7-oxo-6-(1-phenylethyl)-5,6,7,8-tetrahydro-1H-pyrazolo[4,3-g]quinazolin-3-yl)picolinonitrile] the value was 8.00; for `C[C@H](c1ccccc1)N1Cc2cc3c(-c4ccnc(F)c4)n[nH]c3cc2NC1=O` [Example 41, (R)-3-(2-fluoropyridin-4-yl)-6-(1-phenylethyl)-5,6-dihydro-1H-pyrazolo[4,3-g]quinazolin-7(8H)-one], 9.52; for `COc1ccccc1CN1Cc2cc3c(-c4ccnc(C)c4)n[nH]c3cc2NC1=O` [Example 18, 6-(2-methoxybenzyl)-3-(2-methylpyridin-4-yl)-5,6-dihydro-1H-pyrazolo[4,3-g]quinazolin-7(8H)-one], 9.10. Regarding `C[C@H](c1ccccc1)N1Cc2cc3c(I)n[nH]c3cc2NC1=O` [Example 43, (R)-3-iodo-6-(1-phenylethyl)-5,6-dihydro-1H-pyrazolo[4,3-g]quinazolin-7(8H)-one], the negative logarithm of the IC50 (pIC50) is 7.32.

With `Cc1cc(-c2n[nH]c3cc4c(cc23)CN(C2CCCOc3ccccc32)C(=O)N4)ccn1` (stereo not shown) [Example 16, 3-(2-methylpyridin-4-yl)-6-(2,3,4,5-tetrahydrobenzo[b]oxepin-5-yl)-5,6-dihydro-1H-pyrazolo[4,3-g]quinazolin-7(8H)-one], the pIC50 was 8.32.

As for `Cc1cc(-c2n[nH]c3cc4c(cc23)CN(Cc2cccc(C)n2)C(=O)N4)ccn1` [Example 21, 6-((6-methylpyridin-2-yl)methyl)-3-(2-methylpyridin-4-yl)-5,6-dihydro-1H-pyrazolo[4,3-g]quinazolin-7(8H)-one], the pIC50 was 9.22.

Regarding `C[C@H](c1ccccc1)N1Cc2cc3c(OCCO)n[nH]c3cc2NC1=O` [Example 37, (R)-3-(2-hydroxyethoxy)-6-(1-phenylethyl)-5,6-dihydro-1H-pyrazolo[4,3-g]quinazolin-7(8H)-one], the pIC50 was 7.70. Turning to `COC[C@H](c1ccc(F)cc1)N1Cc2cc3c(-c4ccnc(C)c4)n[nH]c3cc2NC1=O` [Example 17], the pIC50 was 9.15.

As usually defined, the pIC50 is the negative decadic logarithm of the IC50, by convention in mol/L.

These data come from patent US10065967B2, “Compounds that are ERK inhibitors” (Merck Sharp & Dohme Corp., priority 2013, dated 2018).
